Data taken from article PMC5320532, “Intracellular drug bioavailability: a new predictor of system dependent drug disposition” (Scientific Reports, 2017).
“Also recorded” adds a separate entry of the source. Like-named read-outs stand apart in the source and are kept apart here.

Columns and labels:
[1] = Intracellular fraction of unbound compound (fu,cell), dialysis of cell homogenate; assay type: in vitro ADME; settings: freshly isolated human hepatocyte homogenate; geometrical mean ± S.E.M.; read-out: fu,cell hepatocytes
[2] = Intracellular compound accumulation (Kp) and intracellular bioavailability (Fic); settings: human, mock-transfected HEK293 cells
Description: (§1) To determine intracellular unbound compound concentrations, we measured intracellular fraction of unbound compound (fu,cell) in parallel with total intracellular compound accumulation (Ccell), as described below. Intracellular compound bioavailability (Fic) was calculated as the ratio between intracellular unbound compound concentration (Cu,cell = fu,cell∙Ccell) (the concentration available to bind intracellular targets) and the externally added compound concentration (Cmedium):
(§2) HEK293 cells were grown for two days in 24-well plates, as previously described[25]. MDCK cells were grown for two days in 96-well plates, prior to the intracellular compound accumulation experiments. The growth media were the same as described in the section ‘Cell line maintenance’ without addition of hygromycin B to avoid transporter inhibition.
(§3) Intracellular compound accumulation at steady-state was measured essentially as described before[25]. Briefly, cells were washed twice with HBSS and incubated for 45 min with solutions of single test compounds (in HBSS) on an orbital shaker (300 rpm) at 37 °C. At the end of the experiment, the remaining extracellular compound solutions were collected and cells were washed twice with ice-cold phosphate-buffered saline pH 7.4 (PBS). For hepatocytes in suspension, the cells were separated from the extracellular solutions by centrifugation (100 × g for 5 min). Compounds were extracted from the cells using acetonitrile/water (60:40) spiked with 50 nM warfarin (internal standard). Extracellular medium samples were diluted 10-fold with the same extraction solution. […] Protein concentrations were measured in representative wells of the plates using the BCA Protein Assay Reagent Kit (Thermo Fisher Scientific Inc.).
(§4) The ratio between total compound concentrations in the cells and in the medium (Kp) was calculated according to:
(§5) where Acell is the amount of compound in the cell samples, Vcell is the cell volume (6.5 μL/mg protein[80]), and Cmedium is the compound concentration in the medium sample.

[3] = Intracellular fraction of unbound compound (fu,cell), dialysis of cell homogenate; assay type: in vitro ADME; settings: human; OATP1B1-transfected HEK293 cell homogenate; geometrical mean ± S.E.M.; read-out: Cell binding (fu,cell)
Description: For intracellular fraction of unbound compound experiments, cell lines or primary cells were suspended to a concentration of 10 × 10^6 cells/ml in Hank’s balanced salt solution (HBSS). Cell suspensions were homogenized for 10 s with a VCX-500 ultrasonic processor (Sonics & Materials) at 20% intensity and used immediately for binding experiments.
Binding to cell homogenates at steady-state was measured using dialysis as previously described. […] Briefly, the cell homogenate was spiked with six randomly-chosen compounds. Homogenates were dialyzed for 4 h using a Rapid Equilibrium Dialysis device (Thermo Fisher Scientific Inc.). At the end of the incubation, uniform sample matrices were obtained by addition of blank homogenate to samples from the buffer chamber, and by addition blank buffer to samples from the homogenate chamber. Dilutions of samples from the homogenate chambers (10-fold and 100-fold) were prepared. […] Compounds in the supernatant were analyzed by ultra-performance liquid chromatography coupled to tandem mass spectrometry (UPLC-MS/MS), as described below.
The fraction of compound that was not bound to cell homogenate (fu,hom) was calculated according to: […]
where PAbuffer is the peak area of compound in the buffer chamber and PAhom is the peak area of compound in the homogenate chamber, both corrected for the peak area of the internal standard in the respective chamber. For each compound, the dilution of the homogenate sample where PAhom was closest to PAbuffer was used.
The fraction of unbound compound in the cell (fu,cell) was calculated according to: […]

[4] = as above; settings: human, mock-transfected HEK293 cell homogenate
[5] = test system: P-gp; test: Intracellular compound accumulation (Kp) and intracellular bioavailability (Fic); settings: dog, MDCK II wild-type cells
Description: as §1, §2, §3, §4, §5

[6] = test system: OATP1B1; test: as above; settings: human, OATP1B1-transfected HEK293 cells
[7] = as above; assay type: in vitro ADME; settings: geometrical mean ± S.E.M.
Description: where Kp is the ratio Ccell/Cmedium.
Hepatocytes were isolated from human liver tissue obtained from two donors undergoing surgical resections at the Department of Surgery, Uppsala University Hospital. […] Isolation was performed using a two-step collagenase procedure, as previously described.
For the corresponding experiments in human hepatocytes, two cell culture configurations were used: freshly isolated cells in suspension, or cells cultivated as monolayers for 24 h. The freshly isolated cells were suspended directly after isolation at a concentration of 5 × 10^6 cells/ml in HBSS. The cell suspension (100 μl) was added to 96-well plates, which were immediately used for accumulation experiments. […] After cell attachment, medium was replaced by hepatocyte maintenance medium (Lonza) supplemented with insulin (10 μg/ml), transferrin (5.5 μg/ml), selenium (5 ng/ml), penicillin (100 units/ml), streptomycin (100 μg/ml), and dexamethasone (0.1 μM). Cells were kept in maintenance medium for 24 h, until the start of the intracellular compound accumulation experiments.

[8] = in vitro; settings: dog
[9] = test system: P-gp; test: Intracellular compound accumulation (Kp) and intracellular bioavailability (Fic); settings: dog, P-gp-KO (CRISPR) MDCK cells
Description: as §1, §2, §3, §4, §5

[10] = test system: P-gp; test: as above; settings: dog, P-gp-transfected MDCK cells
Description: as §1, §2, §3, §4, §5

[11] = Intracellular fraction of unbound compound (fu,cell), dialysis of cell homogenate; settings: dog, homogenate of MDCK cells transfected with human P-gp
[12] = test system: P-gp; design: method as in earlier work; settings: dot = substrate; collated from literature ref 74, 75, 76; cited from earlier work
[13] = test system: OATP1B1; settings: dot = substrate; collated from literature ref 74, 75, 76; cited from earlier work
[14] = design: method as in PMID 19785645; settings: human subjects; co-administration of cyclosporine A ref 58; cited from earlier work
[15] = test system: P-gp-transfected MDCK cells (+ elacridar); settings: dog, MDCK-MDR1
[16] = test system: P-gp; test: in vitro; settings: dog
Description: as §1, §2, §3, §4, §5

[17] = test system: P-gp-KO (CRISPR) MDCK cells; settings: dog
Description: as §1, §2, §3, §4, §5

[18] = test system: OATP1B1-transfected HEK293 cells; settings: human
Description: as §1, §2, §3, §4, §5

[19] = test system: MDCK II wild-type cells; settings: dog
Description: as §1, §2, §3, §4, §5

[20] = test system: P-gp-transfected MDCK cells; settings: dog
Description: as §1, §2, §3, §4, §5

[21] = in vitro; settings: human
[22] = test system: mock-transfected HEK293 cells; settings: human
Description: as §1, §2, §3, §4, §5

[23] = test system: P-gp-transfected MDCK cells; test: Intracellular compound accumulation (Kp) and intracellular bioavailability (Fic); settings: 0.5 μM; ratio cP-gp-KO/P-gp-transfected
Description: as §1, §2, §3, §4, §5

[24] = test system: primary human hepatocytes; test: Metabolic clearance (CLint) in primary human hepatocytes; assay type: in vitro ADME; settings: 1 μM; freshly isolated human hepatocytes in suspension vs after 24 h in monolayer
Description: Metabolic clearance (CLint) was determined, as previously described. […] At time points 0, 10, 30, and 60 min, the reaction was stopped by addition of acetonitrile (200 μl) spiked with 50 nM warfarin (internal standard). […] CLint was calculated as the product of the compound disappearance rate and incubation volume, normalized by the cell number.

COc1ccc(CCN2CCC(Nc3nc4ccccc4n3Cc3ccc(F)cc3)CC2)cc1 [Astemizole]
fraction unbound at 4 h [1]: 0.00036 ± 0.00012
Kp at 45 min, 0.1 μM [2]: 821 ± 253
fraction unbound at 4 h [3]: 0.0013 ± 0.0004
fraction unbound at 4 h [4]: 0.0018 ± 0.0006
Kp at 45 min [5]: 1680 ± 71
Kp at 45 min, 0.1 μM [6]: 738 ± 576
Kp at 45 min ([7]; freshly isolated human hepatocytes in suspension): 1990 ± 1090
Kp at 24 h ([7]; human hepatocytes cultured for 24 h in monolayer format, Monolayer hepatocytes (human, 24 h culture)): 1600 ± 308
fraction unbound [8]: 1e-05 ± 2e-05
Kp at 45 min, 0.5 μM [9]: 2010 ± 200
Kp at 45 min, 0.5 μM [10]: 995 ± 94

CC(C)n1c(/C=C/C(O)CC(O)CC(=O)O)c(-c2ccc(F)cc2)c2ccccc21 (centres unmarked) [Fluvastatin]
fraction unbound at 4 h [11]: 0.0099 ± 0.0026
Kp at 45 min, 0.1 μM [2]: 45 ± 6
fraction unbound at 4 h [3]: 0.015 ± 0.001
P-gp substrate [12]: ●
fraction unbound at 4 h [4]: 0.017 ± 0.003
OATP1B1 substrate [13]: ●
Kp at 45 min [5]: 35 ± 5
Kp at 45 min, 0.1 μM [6]: 94 ± 12
increase of AUC by cyclosporine A [14]: 3- to 4 fold
Kp at 45 min, 0.5 μM [9]: 53 ± 4
Kp at 45 min, 0.5 μM [10]: 21 ± 2

CN(C)C(=O)C(CCN1CCC(O)(c2ccc(Cl)cc2)CC1)(c1ccccc1)c1ccccc1 [Loperamide]
intracellular bioavailability (Fic) [15]: 0.33±0.33
P-gp substrate [12]: ●
Kp [16]: 987 ± 198
intracellular bioavailability (Fic) [17]: 0.34±0.35
intracellular bioavailability (Fic) [18]: 6.8±1.8
intracellular bioavailability (Fic) [19]: 0.50±0.51
intracellular bioavailability (Fic) [20]: 0.13±0.13
fraction unbound [21]: 0.0078 ± 0.0008
fraction unbound [8]: 0.00051 ± 0.00051
intracellular bioavailability (Fic) [22]: 4.3±1.7

Cc1c(O)cccc1C(=O)N[C@@H](CSc1ccccc1)[C@H](O)CN1C[C@H]2CCCC[C@H]2C[C@H]1C(=O)NC(C)(C)C [Nelfinavir]
fraction unbound at 4 h [11]: 0.0001 ± 4e-05
Kp at 45 min, 0.1 μM [2]: 337 ± 113
fraction unbound at 4 h [3]: 0.00044 ± 0.0001
P-gp substrate [12]: ●
fraction unbound at 4 h [4]: 0.00039 ± 8e-05
Kp at 45 min [5]: 494 ± 74
Kp at 45 min, 0.1 μM [6]: 652 ± 228
Kp at 45 min, 0.5 μM [9]: 1080 ± 50
Kp at 45 min, 0.5 μM [10]: 53 ± 19
Fic fold lower in P-gp-transfected than in cP-gp-KO MDCK cells [23]: 20 fold

O=C(O)C[C@H](O)C[C@H](O)/C=C/c1c(C2CC2)nc2ccccc2c1-c1ccc(F)cc1 [Pitavastatin]
fraction unbound at 4 h [11]: 0.023 ± 0.005
fraction unbound at 4 h [1]: 0.017 ± 0.011
Kp at 45 min, 0.1 μM [2]: 4.2 ± 0.3
fraction unbound at 4 h [3]: 0.025 ± 0.006
P-gp substrate [12]: ●
fraction unbound at 4 h [4]: 0.023 ± 0.005
OATP1B1 substrate [13]: ●
Kp at 45 min [5]: 11
Kp at 45 min, 0.1 μM [6]: 35 ± 3
increase of AUC by cyclosporine A [14]: 5- to 15 fold
Kp at 45 min, 0.5 μM [9]: 13 ± 1
Kp at 45 min, 0.5 μM [10]: 11 ± 2

CC(C)c1nc(CN(C)C(=O)N[C@H](C(=O)N[C@@H](Cc2ccccc2)C[C@H](O)[C@H](Cc2ccccc2)NC(=O)OCc2cncs2)C(C)C)cs1 [Ritonavir]
P-gp substrate [12]: ●
metabolic clearance (CLint), suspension vs monolayer hepatocytes [24]: higher rates; also recorded: reduced
